Our source for the IC50 values is US10501460B2, “Heterocyclic compounds and uses thereof” (Plexxikon Inc., priority 2013, dated 2019).

Assay [1] addresses T1, BRD4-BD1 (44-164) (Homo sapiens, UniProt O60885).
T1 construct: BRD4-BD1 (44-164); made in house; host or cells: E. coli BL21-CodonPlus (DE3)
Kind of assay: Alphascreen binding assay BRD4-BD1 (BRD4 biochemical inhibitory activity). As to conditions: read-out: Biochemical activity (IC50 μM) BRD4(1) H4. The method, then: Binding of compounds of formula (I) with bromodomain 2, 3 4 was assessed using Alphascreen binding assay. The inhibition of the interaction between bromodomain and its acetylated target protein (Filippakopoulos P et al. 2012) was measured quantitatively using recombinant BRD proteins, an acetylated Histone 4 peptide and AlphaScreen™ technology. In absence of inhibition the BRD protein bound to AlphaScreen™ nickel chelate acceptor beads can interact with the acetylated Histone 4 peptide which is immobilized by the AlphaScreen™ Streptavidin coated beads. This interaction brings donor and acceptor beads in proximity. The close proximity allows the singlet oxygen produced by laser excitation of the donor beads to reach the acceptor beads and generate a luminescence signal. BRD inhibitors result in a decrease in the proximity signal through an inhibition of the BRD—acetylated peptide interaction.
Recombinant human bromodomains containing the N-terminal bromodomain (BRD2-BD1 (71-194), BRD3-BD1 (24-144) and BRD4-BD1 (44-164)) or dual bromodomains (BRD4-BD12 (1-477), BRD4-BD12 (1-472)) were prepared and purified as described in protein expression and purification session. The peptide is human Histone H41-21K5AcK8AcK12AcK16Ac-Biotin (Anaspec Calif., USA).
Protocol for BRD2, BRD3 and BRD4 assay: All components are prepared in buffer composed of 50 mM HEPES pH 7.5, 100 mM NaCl, 0.01% bovine serum albumin (“BSA”), 0.01% Triton X-100, 2 mM dithiothreitol (“DTT”). 7 μL of Bromodomain protein and 7 μL of peptide are added to wells containing 1 μL of various concentrations of test compounds of formula (I) or DMSO vehicle in an Alphaplate (PerkinElmer Ga., USA) and incubated for 1 hour at room temperature. 4 μL donor and acceptor bead mixture is then added with final concentrations of 7.5 μg/ml. 30 minutes after bead addition, Alpha signal is read on the Envision spectrometer ([…]Ex 680 nm, […]Em 520-620 nm). Final concentrations of bromodomain proteins and peptide are as shown below.
All data was normalized to the mean of 16 high and 16 low control wells on each plate. A four parameter curve fit of the following formula was then applied: Y=a+(b−a)/(1+(x/c)^d) Where ‘a’ is the minimum, ‘b’ is the maximum, ‘c’ is the pIC50 and ‘d’ is the Hill slope. Protein Expression and Purification
Recombinant human bromodomains containing the N-terminal bromodomain (BRD2-BD1 (71-194), BRD3-BD1 (24-144) and BRD4-BD1 (44-164)) or dual bromodomains (BRD4-BD12 (1-477), BRD4-BD12 (1-472)) were expressed in E. coli cells (in a modified pET vector) with an N-terminal six-His tag and purified using a combination of both IMAC (Ni-affinity) and size exclusion chromatography steps.
Recombinant BRD proteins were expressed using the E. coli strain BL21-CodonPlus (DE3) (Agilent Technologies Calif., USA). Cells were grown in Terrific Broth (TB) media to an OD600 of 1.2 at 37° C. at which temperature was reduced to 25° C., protein was induced with 1.0 mM ispropyl-β-D-thiogalactopyranoside (“IPTG”) for 12-18 hours and harvested by centrifugation at 8000×g for 20 minutes. Cells were re-suspended in 0.1M K2PO4 pH 8.0, 250 mM NaCl, 10% Glycerol, 0.75% NP-40, 25 mM Imidazole, 5 mM beta-mercaptoethanol (“BME”) with 0.2 mg/ml Lysosyme, 2.0 mM phenylmethanesulfonyl fluoride (“PMSF”), 25 μg/ml DNAse I, incubated on ice for 30 minutes and lyzed with a cell disruptor (MicroFluidics Mass., USA). The lysate was clarified by centrifugation at 20,000×g for 2 hours. The protein was captured with Ni-NTA resin (Life Technologies, USA). Contaminating proteins were washed off with 25 mM Tris-HCl pH 8.3, 250 mM NaCl, 12% Glycerol and 50 mM Imidazole. Following 3× wash steps, protein was eluted step wise using a 50 mM HEPES pH 7.5, 500 mM NaCl and 400 mM Imidazole. The protein was further purified using Gel Filtration column 26/600 Superdex 200 (GE Biosciences NJ, USA) in 50 mM HEPES pH 7.5, 250 mM NaCl. The protein was aliquoted and flash-frozen in liquid Nitrogen. […]
Background: In Alpha technology, singlet oxygen from a donor bead excites a nearby acceptor bead.

Assay [2] has as its system MV-4-11. In words: Oncology cell growth assay MV-4-11 (CellTiter Glo, 72 hours). As to conditions: Homo sapiens, MV4-11, 72 h; MV-4-11 cell growth inhibitory activity, 3d. In kind it is cell-based. The procedure, abridged:
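MV-4-11 cells (MLL-AF4 AML) exposed 72 h to 8-point 1:3 titration, top final 10 μM, 0.2% DMSO. CellTiter Glo luminescence as cell-number readout, normalized to DMSO controls; pIC50 from four-parameter fit.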
A general note: ATP-based viability assays read luminescence as a measure of living cells.

Assay [3] deals with bromodomain. In words: Bromodomain cell assays of Example 40 (at least one of them). The assay is classed as cell-based. As to conditions: in at least one of the bromodomain cell assays described in Example 40. The procedure, abridged: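 Growth inhibition: 3000 MV-4-11, MOLM-13, MM.1S or neuroblastoma cells/well got an 8-point 1:3 series from 10 μM top (0.2% DMSO) for 72 h, then CellTiter-Glo luminescence. Myc reporter: MV-4-11 with E-box firefly luciferase, 24 h exposure, One-Glo luminescence plus CellTiter-Fluo cell count. pIC50 from four-parameter fit.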

For `Cc1cc2cc(-c3c(C)noc3C)cnc2[nH]1` [P-0017, 3,5-dimethyl-4-(2-methyl-1H-pyrrolo[2,3-b]pyridin-5-yl)isoxazole], the values for the 50% inhibitory concentration (IC50) in assay [1], in assay [2] and in assay [3] were 1 to 10 µM, 1 to 10 µM and below 10 µM, respectively.
On to `Cc1noc(C)c1-c1cnc2[nH]cc(C(O)c3ccc(C(F)(F)F)nc3)c2c1` (stereo not shown) [P-0023, [5-(3,5-dimethylisoxazol-4-yl)-1H-pyrrolo[2,3-b]pyridin-3-yl]-[6-(trifluoromethyl)-3-pyridyl]methanol], for which the results for the IC50 in assay [1], in assay [2] and in assay [3] were 1 to 10 µM, 1 to 10 µM and below 10 µM, respectively.
With `COc1ccc(S(=O)(=O)n2ccc3ncc(-c4c(C)noc4C)cc32)cc1` [P-0032, 4-[1-(4-methoxyphenyl)sulfonylpyrrolo[3,2-b]pyridin-6-yl]-3,5-dimethyl-isoxazole], the IC50 (commonly the concentration that gives 50% inhibition) in assay [1] was 1 to 10 µM; in assay [2], 1 to 10 µM; in assay [3], below 10 µM.
On to `Cc1noc(C)c1-c1cnc2ccn(S(=O)(=O)c3ccc(OC(C)C)cc3)c2c1` [P-0033, 4-[1-(4-isopropoxyphenyl)sulfonylpyrrolo[3,2-b]pyridin-6-yl]-3,5-dimethyl-isoxazole], for which the results for the IC50 in assay [1], in assay [2] and in assay [3] were 1 to 10 µM, 1 to 10 µM and below 10 µM, respectively.
Take `CCc1cc2cc(-c3c(C)noc3C)cnc2[nH]1` [P-0035, 4-(2-ethyl-1H-pyrrolo[2,3-b]pyridin-5-yl)-3,5-dimethyl-isoxazole]: the 50% inhibitory concentration (IC50) in assay [1] is 1 to 10 µM; in assay [2] it was 1 to 10 µM; in assay [3], below 10 µM.
Take `Cc1noc(C)c1-c1cnc2[nH]cc(Cc3cccc(OC(F)(F)F)c3)c2c1` [P-0046, 3,5-dimethyl-4-[3-[[3-(trifluoromethoxy)phenyl]methyl]-1H-pyrrolo[2,3-b]pyridin-5-yl]isoxazole]: the IC50 in assay [1] is 1 to 10 µM; in assay [2], 1 to 10 µM; in assay [3], below 10 µM.
Turning to `Cc1noc(C)c1-c1cnc2ccn(S(=O)(=O)c3ccc(F)cc3)c2c1` [P-0052, 4-[1-(4-fluorophenyl)sulfonylpyrrolo[3,2-b]pyridin-6-yl]-3,5-dimethyl-isoxazole], the half-inhibitory concentration (IC50) in assay [1] is 1 to 10 µM; in assay [2], 1 to 10 µM; in assay [3], below 10 µM.
For the compound `Cc1noc(C)c1-c1cnc2ccn(S(=O)(=O)c3ccc(Cl)cc3)c2c1` [P-0053, 4-[1-(4-chlorophenyl)sulfonylpyrrolo[3,2-b]pyridin-6-yl]-3,5-dimethyl-isoxazole], the IC50 in assay [1] is 1 to 10 µM; in assay [2], 1 to 10 µM; in assay [3] it was below 10 µM.
For the compound `Cc1noc(C)c1-c1cnc2c(I)cn([Si](C(C)C)(C(C)C)C(C)C)c2c1` [P-0130, [6-(3,5-dimethylisoxazol-4-yl)-3-iodo-pyrrolo[3,2-b]pyridin-1-yl]-triisopropyl-silane], the IC50 was 1 to 10 µM in assay [1] and below 10 µM in assay [3].
Take `Cc1noc(C)c1-c1cnc2c(C(=O)O)cn(S(=O)(=O)c3ccccc3)c2c1` [P-0169, 1-(benzenesulfonyl)-6-(3,5-dimethylisoxazol-4-yl)pyrrolo[3,2-b]pyridine-3-carboxylic acid]: the values for the IC50 in assay [1] and in assay [3] were at most 1 µM and below 10 µM, respectively.
Regarding `Cc1noc(C)c1-c1cnc2c(c1)N(S(=O)(=O)c1ccccc1)CC2CCC(=O)O` (stereo not shown) [P-0175, 3-[1-(benzenesulfonyl)-6-(3,5-dimethylisoxazol-4-yl)-2,3-dihydropyrrolo[3,2-b]pyridin-3-yl]propanoic acid], the figures for the IC50 in assay [1] and in assay [3] were 1 to 10 µM and below 10 µM, respectively.
For the compound `Cc1noc(C)c1-c1cnc2c(c1)c(Sc1ccccc1)cn2C1COC1` [P-0178, 3,5-dimethyl-4-[1-(oxetan-3-yl)-3-phenylsulfanyl-pyrrolo[2,3-b]pyridin-5-yl]isoxazole], the IC50 in assay [1] and in assay [2] was 1 to 10 µM throughout.
Consider `Cc1noc(C)c1-c1cnc2c(-c3cnn(C)c3)cn(C(=O)C3CCC(F)(F)CC3)c2c1` [P-0208, (4,4-difluorocyclohexyl)-[6-(3,5-dimethylisoxazol-4-yl)-3-(1-methylpyrazol-4-yl)pyrrolo[3,2-b]pyridin-1-yl]methanone], for which the results for the IC50 in assay [1] and in assay [2] were at most 1 µM and 1 to 10 µM, respectively.
